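Values below derive from 48-hour exposures of cells grown in 96-well plates, with endpoints linearly interpolated between the two concentrations bracketing the appropriate inhibition level. GI50 marks 50% less growth. TGI is the concentration that stops growth completely.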
Key:
Experiment in all cases: DTP human tumour cell line panel, 48 h
MDA-MB-435 = tested on: MDA-MB-435
NCI/ADR-RES ovarian = tested on: NCI/ADR-RES ovarian
MDA-N = tested on: MDA-N
XF 498 CNS = tested on: XF 498 CNS
M19-MEL melanoma = tested on: M19-MEL melanoma
LXFL 529 NSCLC = tested on: LXFL 529 NSCLC
KM20L2 colon = tested on: KM20L2 colon
DMS 114 small cell lung = tested on: DMS 114 small cell lung

Compound | GI50 (MDA-MB-435) [µM] | TGI (MDA-MB-435) [µM] | GI50 (NCI/ADR-RES ovarian) [µM] | TGI (NCI/ADR-RES ovarian) [µM] | TGI (MDA-N) [µM] | TGI (LXFL 529 NSCLC) [µM] | TGI (KM20L2 colon) [µM] | TGI (DMS 114 small cell lung) [µM] | also measured
Cc1ccc(C(C)C)cc1NC(=O)Nc1ccc([N+](=O)[O-])cc1 | 2.19 | 6.5 | 2.61 | 7.7 |  |  |  |  | 
CCOP(=O)(Nc1ccc2oc(=O)c3ccccc3c2c1)OCC |  | > 100 |  | > 100 | > 100 |  |  |  | 
COc1cc2cc3c4c(cc(OC)c(OC)c4c2cc1OC)CCN3C(=O)CCC(=O)NCCCN(C)C |  |  |  |  |  | > 100 | 67 | > 100 | TGI (XF 498 CNS): > 100 µM; TGI (M19-MEL melanoma): 55.4 µM
Cc1nc(N)nc2ccccc12 |  | > 100 |  | > 100 | > 100 |  |  |  | 
Cc1cc(Cl)ccc1NS(=O)(=O)c1ccc(-c2cnc(C3CC3)o2)cc1 | 0.0838 | 15.5 | 0.178 | 13 |  |  |  |  | 
N[C@@H]1CCCC[C@@H]1N.O=P([O-])([O-])CN(CP(=O)([O-])[O-])CP(=O)([O-])[O-].[Pt+2] |  |  |  |  |  | > 100 | > 100 |  | GI50 (XF 498 CNS): > 100 µM; TGI (XF 498 CNS): > 100 µM; GI50 (M19-MEL melanoma): > 100 µM; TGI (M19-MEL melanoma): > 100 µM; GI50 (LXFL 529 NSCLC): > 100 µM; GI50 (KM20L2 colon): > 100 µM
Oc1[nH]c2cc(Cl)ccc2c1/C=c1/ccc2c(c1)N=C(c1cc(F)cc(F)c1)N=2 | 0.57 | 2.38 | 2.03 | 6.75 |  |  |  |  | 
COc1nc(NC2OC(COC(C)=O)C(OC(C)=O)C(OC(C)=O)C2OC(C)=O)c(-c2csc(N)n2)c(=O)n1C (stereo not drawn) |  |  |  |  |  | > 100 | > 100 | > 100 | TGI (M19-MEL melanoma): > 100 µM
O=C(Cc1csc2nc(-c3ccc(Br)cc3)cn12)N/N=C/c1ccc(O)cc1 | 6.27 | 24.3 | 21.2 | 61.1 |  |  |  |  | 
CC(=O)Oc1ccc2c(c1)CC[C@@H]1C2CC[C@]2(C)C(=O)NC(=O)CC12 (stereo partly drawn) |  | > 100 |  |  | > 100 |  |  |  | 
Cc1cc(C(O)CN(C)C)cc2c1ccc1cc(C(C)C)ccc12 (stereo not drawn) | 1.79 | 3.64 | 2.07 | 5.47 |  |  |  |  | 
COc1cccc(/C=C/C(=O)c2cc3c(N)c(C(=O)Nc4cccc5ccccc45)sc3nc2C)c1 |  |  | 1.33 | 5.75 |  |  |  |  | 
C=[CH][Sn]([CH]=C)([O]c1cccc2cccnc12)[O]c1cccc2cccnc12 | 7.86 | 40.8 | 9.94 | > 100 |  |  | 4.99 |  | GI50 (KM20L2 colon): 2.26 µM
Oc1ccc(Cl)cc1Cc1cc(Cl)ccc1O | 2.76 | 8.44 | 2.19 | 6.32 |  |  |  |  | 
C/C=C1\C(=O)OC2CCN3CCC(COC(=O)C(C)(O)C(C)C1O)C23 (stereo not drawn) |  | > 100 |  | > 100 | > 100 |  |  |  | 
C[C@]12CC[C@H](OC3CCCCO3)CC1=CC[C@@H]1C2CC[C@]2(C)/C(=N/O)CCC12 (stereo partly drawn) |  |  |  |  |  | 45.6 | 30.5 | 37.9 | TGI (XF 498 CNS): 68.6 µM
CC1(C)OC2C(COS(N)(=O)=O)SC(n3cnc4cncnc43)C2O1 (stereo not drawn) | > 100 | > 100 | > 100 | > 100 |  |  |  |  | 
COc1ccc(OC)c2c3c(ccc12)C(c1ccccc1)OC3=O (stereo not drawn) |  |  |  |  |  | > 100 | > 100 | > 100 | TGI (M19-MEL melanoma): > 100 µM
CC1CCC2N(C1)CC1C3(O)CC45OC6(O)C(O)CCC4(C)C6CCC5C3(O)CC(O)C1(O)C2(C)O (stereo not drawn) |  | > 100 |  | > 100 | > 100 |  |  |  | 
CCCCCCCCCCCCOP(N)(=O)OCCCCCCCCCCCC |  |  |  |  |  | > 100 |  | > 100 | TGI (M19-MEL melanoma): > 100 µM
C[C@@H]1C[C@]2(C[C@@H](C)C3[C@@H](CC4(C)[C@@H]5CCC6C(C)(C)OC(=O)C=C[C@]67C[C@@]5(CC[C@]34C)OO7)O2)OC1=O (stereo partly drawn) |  |  |  |  |  | > 100 |  | > 100 | TGI (XF 498 CNS): 73.9 µM
CC1=NN(C(=O)c2ccccc2O)C(=O)/C1=C/c1cccc([N+](=O)[O-])c1 |  | > 100 |  | > 100 | > 100 | > 100 | 63.6 | 21.4 | 
COc1cnc2cc(C(=O)O)c3ccccc3c2c1 |  | > 100 |  | > 100 | > 100 |  |  |  | 
C#CCN(Cc1ccc2nc(N)[nH]c(=O)c2c1)c1ccc(C(=O)NC(CCC(=O)O)C(=O)O)cc1 (stereo not drawn) |  | > 100 |  | > 100 | > 100 |  |  |  | 
S=c1nc(-c2ccnc(-c3nc(=S)[nH][nH]3)c2)[nH][nH]1 |  |  |  |  |  | > 100 | > 100 | > 100 | TGI (XF 498 CNS): > 100 µM; TGI (M19-MEL melanoma): > 100 µM

— PubChem BioAssay (NCI)
